In patent publication US5108896A, “Simultaneous immunoassay of two analytes using dual enzyme labelled antibodies” (priority 1986, dated 1992):
Where two headings read alike, the source gives them in different places.

Target: β-galactosidase (Escherichia coli, UniProt P00722)
Assay: Kinetics of β-galactosidase with p-NPBG, with and without diethanolamine
Type: biochemical
Conditions: for Km: read-out: Michaelis constant (Km) of β-galactosidase for p-NPBG
Experimental: β-galactosidase has a pH optimum of 7.4 for p-nitrophenyl-β-D-galactoside (p-NPBG), although in a single assay format using normal substrate concentrations (up to approximately 5 mM), the pH can be raised to 8.6 with only a slight loss (approximately 20%) of activity. […] We have also found, however, that by increasing the concentration of p-NPBG at pH 8.6, even in the presence of about 1M diethanolamine, substantial activity of β-galactosidase can be achieved. Substantial activity of β-galactosidase is also obtained if the same reaction medium is used but with p-NPBG replaced by o-NPBG.

Chain of β-galactosidase (P00722 2-1024): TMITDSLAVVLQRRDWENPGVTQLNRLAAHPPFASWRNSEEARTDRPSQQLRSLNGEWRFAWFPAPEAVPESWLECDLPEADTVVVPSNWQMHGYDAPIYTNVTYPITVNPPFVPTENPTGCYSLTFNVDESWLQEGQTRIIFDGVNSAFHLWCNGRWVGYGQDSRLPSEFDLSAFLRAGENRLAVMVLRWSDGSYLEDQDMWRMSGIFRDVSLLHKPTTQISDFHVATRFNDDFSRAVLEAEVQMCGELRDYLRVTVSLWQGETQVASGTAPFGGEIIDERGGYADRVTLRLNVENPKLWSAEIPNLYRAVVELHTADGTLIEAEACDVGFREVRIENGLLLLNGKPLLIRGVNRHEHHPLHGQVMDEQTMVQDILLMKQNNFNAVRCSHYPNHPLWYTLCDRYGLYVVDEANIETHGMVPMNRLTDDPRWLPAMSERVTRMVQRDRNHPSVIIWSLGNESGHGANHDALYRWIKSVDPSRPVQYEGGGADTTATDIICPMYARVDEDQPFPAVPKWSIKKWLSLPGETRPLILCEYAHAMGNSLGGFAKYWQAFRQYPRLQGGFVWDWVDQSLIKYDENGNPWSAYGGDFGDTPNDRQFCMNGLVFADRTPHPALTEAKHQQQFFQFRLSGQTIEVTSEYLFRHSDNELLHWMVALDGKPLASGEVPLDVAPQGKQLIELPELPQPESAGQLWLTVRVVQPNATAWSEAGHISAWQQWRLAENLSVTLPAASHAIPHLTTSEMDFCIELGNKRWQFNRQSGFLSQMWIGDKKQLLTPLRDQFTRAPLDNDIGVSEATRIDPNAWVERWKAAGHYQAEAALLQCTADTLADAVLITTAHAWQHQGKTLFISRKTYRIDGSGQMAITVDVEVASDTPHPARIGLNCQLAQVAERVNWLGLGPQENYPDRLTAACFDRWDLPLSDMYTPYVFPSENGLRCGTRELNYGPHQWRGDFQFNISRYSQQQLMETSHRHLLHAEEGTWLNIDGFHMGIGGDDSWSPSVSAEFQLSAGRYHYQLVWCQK

## OCCNCCO [diethanolamine]
About 1M diethanolamine, pH 8.6, p-NPBG at normal substrate concentrations (up to approximately 5 mM)
  activity of β-galactosidase (inhibition by diethanolamine): almost totally abolished

## O=[N+]([O-])c1ccc(O[C@@H]2O[C@H](CO)[C@H](O)[C@H](O)[C@H]2O)cc1 [p-NPBG, p-nitrophenyl-β-D-galactoside]
In the presence of 1M diethanolamine (competitive inhibition)
  Km: 21 mM
Without diethanolamine
  Km: 0.066 mM
